According to PubChem BioAssay (NCI):
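Tested at 5 concentrations; 48 h exposure; 96-well plates; endpoints linearly interpolated, else capped at highest concentration. GI50 = concentration required for 50% inhibition of growth. The concentration for full growth arrest is given as TGI.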

How the values were obtained:
Assay in all cases: NCI tumour cell line growth inhibition, 48 h
[1] = tested on: MOLT-4 leukemia
[2] = tested on: OVCAR-4 ovarian
[3] = tested on: HL-60(TB) leukemia
[4] = tested on: SK-MEL-5 melanoma
[5] = tested on: UACC-62 melanoma
[6] = tested on: MDA-MB-435
[7] = tested on: HOP-92 NSCLC
[8] = tested on: U251 CNS
[9] = tested on: RPMI-8226 leukemia
[10] = tested on: HCT-116 colon
[11] = tested on: UACC-257 melanoma
[12] = tested on: SF-539 CNS
[13] = tested on: SR leukemia
[14] = tested on: NCI-H226 lung
[15] = tested on: A549 NSCLC
[16] = tested on: NCI/ADR-RES ovarian
[17] = tested on: T-47D breast
[18] = tested on: IGROV1 ovarian
[19] = tested on: MDA-MB-231 breast
[20] = tested on: ACHN renal
[21] = tested on: MCF7 breast
[22] = tested on: DU-145 prostate
[23] = tested on: SK-MEL-28 melanoma
[24] = tested on: TK-10 renal
[25] = tested on: SF-268 CNS
[26] = tested on: HOP-62 NSCLC
[27] = tested on: CCRF-CEM leukemia
[28] = tested on: 786-0 renal
[29] = tested on: SW-620 colon
[30] = tested on: SNB-19 CNS
[31] = tested on: SK-OV-3 ovarian
[32] = tested on: OVCAR-3 ovarian
[33] = tested on: UO-31 renal
[34] = tested on: NCI-H460 lung
[35] = tested on: EKVX NSCLC
[36] = tested on: MALME-3M melanoma
[37] = tested on: HS 578T breast
[38] = tested on: RXF 393 renal
[39] = tested on: SF-295 CNS
[40] = tested on: NCI-H23 lung
[41] = tested on: A498 renal
[42] = tested on: SNB-75 CNS
[43] = tested on: COLO 205 colon
[44] = tested on: LOX IMVI melanoma
[45] = tested on: SK-MEL-2 melanoma
[46] = tested on: SN12C renal
[47] = tested on: KM12 colon
[48] = tested on: HCT-15 colon
[49] = tested on: BT-549 breast
[50] = tested on: OVCAR-5 ovarian
[51] = tested on: NCI-H522 lung
[52] = tested on: OVCAR-8 ovarian
[53] = tested on: HCC-2998 colon
[54] = tested on: HT29 colon
[55] = tested on: K-562 leukemia
[56] = tested on: PC-3 prostate
[57] = tested on: M14 melanoma

C=C1[C@@H](C)C2[C@H](Cc3ccccc3)NC(=O)[C@]23[C@H](OC(C)=O)/C=C/[C@@](C)(O)C(=O)[C@@H](C)C/C=C/[C@H]3[C@@H]1O (stereo not given in full)
TGI [1]: > 16.7 µM | GI50 [2]: 0.824 µM | TGI [2]: > 16.7 µM | GI50 [3]: 5.31 µM | TGI [3]: > 16.7 µM | GI50 [4]: 0.955 µM | TGI [4]: > 11.8 µM | GI50 [5]: > 16.7 µM | TGI [5]: > 16.7 µM | GI50 [6]: > 16.7 µM | TGI [6]: > 16.7 µM | GI50 [7]: 0.099 µM | TGI [7]: 0.699 µM | GI50 [8]: 0.105 µM | TGI [8]: > 16.7 µM | GI50 [9]: 3.84 µM | TGI [9]: > 16.7 µM | GI50 [10]: 0.718 µM | TGI [10]: > 16.7 µM | GI50 [11]: > 16.7 µM | TGI [11]: > 16.7 µM | GI50 [12]: 0.322 µM | TGI [12]: > 16.7 µM | GI50 [13]: > 15.7 µM | TGI [13]: > 16.7 µM | GI50 [14]: 16.5 µM | TGI [14]: > 16.7 µM | GI50 [15]: 0.915 µM | TGI [15]: > 16.7 µM | GI50 [16]: > 16.7 µM | TGI [16]: > 16.7 µM | GI50 [17]: > 16.7 µM | TGI [17]: > 16.7 µM | GI50 [18]: 0.574 µM | TGI [18]: > 16.7 µM | GI50 [19]: 0.366 µM | TGI [19]: > 16.7 µM | GI50 [20]: 1.32 µM | TGI [20]: > 16.7 µM | GI50 [21]: 0.756 µM | TGI [21]: > 16.7 µM | GI50 [22]: 7.04 µM | TGI [22]: > 16.7 µM | GI50 [23]: > 16.7 µM | TGI [23]: > 16.7 µM | GI50 [24]: 0.714 µM | TGI [24]: > 16.7 µM | GI50 [25]: 0.228 µM | TGI [25]: > 16.7 µM | GI50 [26]: 0.035 µM | TGI [26]: > 4.4 µM | GI50 [27]: > 11.8 µM | TGI [27]: > 16.7 µM | TGI [28]: > 16.7 µM | GI50 [29]: > 16.7 µM | TGI [29]: > 16.7 µM | GI50 [30]: 0.265 µM | TGI [30]: > 16.7 µM | GI50 [31]: 0.0997 µM | TGI [31]: > 15.2 µM | GI50 [32]: > 16.7 µM | TGI [32]: > 16.7 µM | GI50 [33]: 0.251 µM | TGI [33]: 3.58 µM | GI50 [34]: 0.571 µM | TGI [34]: > 16.7 µM | GI50 [35]: 0.975 µM | TGI [35]: > 16.7 µM | GI50 [36]: > 16.7 µM | TGI [36]: > 16.7 µM | GI50 [37]: 0.0826 µM | TGI [37]: > 16.7 µM | GI50 [38]: 0.105 µM | TGI [38]: 4.19 µM | GI50 [39]: 1.16 µM | TGI [39]: > 16.7 µM | GI50 [40]: > 16.7 µM | TGI [40]: > 16.7 µM | GI50 [41]: 0.11 µM | TGI [41]: 0.826 µM | GI50 [42]: 0.0126 µM | TGI [42]: 0.12 µM | GI50 [43]: 2.32 µM | TGI [43]: > 16.7 µM | GI50 [44]: 0.272 µM | TGI [44]: > 8.76 µM | GI50 [45]: > 16.7 µM | TGI [45]: > 16.7 µM | GI50 [46]: > 16.7 µM | TGI [46]: > 16.7 µM | GI50 [47]: > 16.7 µM | TGI [47]: > 16.7 µM | TGI [48]: > 16.7 µM | GI50 [49]: 0.528 µM | TGI [49]: > 16.7 µM | GI50 [50]: > 9.92 µM | TGI [50]: > 16.7 µM | TGI [51]: > 16.7 µM | GI50 [52]: > 16.7 µM | TGI [52]: > 16.7 µM | GI50 [53]: > 16.7 µM | TGI [53]: > 16.7 µM | GI50 [54]: 0.0933 µM | TGI [54]: > 16.7 µM | GI50 [55]: > 16.7 µM | TGI [55]: > 16.7 µM | GI50 [56]: > 16.7 µM | TGI [56]: > 16.7 µM | GI50 [57]: > 11.4 µM | TGI [57]: > 16.7 µM
